# In patent US10350231B2, “Use of cladribine for treating autoimmune inflammatory disease” (Chord Therapeutics S.a.r.l., priority 2014, dated 2019):
# Entries after “also recorded” stand apart in the source; their conditions may differ.
# Tests used:
# [1] = test system: T lymphocytes from NMO patients; test: Stimulated (anti-CD3/anti-CD28) cytokine secretion by T lymphocytes from NMO patients; assay type: cell-based, human; conditions: cladribine 1×10^−9M to 1×10^−4M, supernatants e.g. 24 hours, compared with healthy donors
# Source text: Using the methods described in Laugel B. et al., J. Neuroimmunol.; (2011); 240-241; 52-57 peripheral blood mononuclear cells (PBMCs) are first isolated from blood obtained from healthy donors and NMO patients, for example by ficoll gradient centrifugation. T-lymphocytes are further purified from these PBMCs, by for example magnetic bead separation using a pan-T cell reagents, or CD4 reagents. The purified lymphocytes are maintained in culture using standard methods and reagents, for example RPMI-1640 growth medium.
# To determine the effect of cladribine on stimulated cytokine secretion by T lymphocytes from NMO patients, identical numbers of purified lymphocytes purified from both healthy donor and NMO patients are pre-incubated for less than one hour in medium containing one of a number of cladribine concentrations, ranging from for example one nanomolar to one hundred micromolar (1×10^−9M to 1×10^−4M), or without added cladribine. Cells are then transferred, with their cladribine-containing or control medium, to the wells of culture plates coated with anti-CD3 antibody, and soluble anti-CD28 antibody is added. Secreted cytokines in culture supernatants collected after, for example, 24 hours, are determined by one of several standard methods including bead-based cytometric cytokine assay and enzyme-linked immunosorbent assay. […]
# [2] = test system: IgM associated inflammatory peripheral neuropathy patient; conditions: intravenous infusion, two courses of cladribine, cited from earlier work
# human lymphocytes = conditions: phosphorylation by CK blocked, lymphocyte death does not occur; cited from earlier work
# [3] = target: A2A (adenosine receptor class 2a) (Homo sapiens, UniProt P29274); conditions: cited from earlier work
# [4] = test system: neuromyelitis optica (NMO) patient; test: Case report of off-label treatment of NMO patient with cladribine; assay type: in vivo, human
# Procedure: A person presented with acute visual symptoms and optic neuritis with normal head MRI. Episodic visual symptoms recurred with increasing severity up to complete blindness in one eye and episodes of deterioration in the other. Some response to methylprednisolone was noted. The diagnostic test for NMO-IgG (ELISA) was positive and brain MRI had no focal lesions.
# 20 mg of cladribine were administered subcutaneously to the patient on each of five dosing days, with one month or more separating the dosing days. On a dosing day, two vials were used each containing 10 ml of a solution of cladribine as shown in Example 2. Eight subcutaneous sites were used, each receiving an injection of 2.5 ml.
# At the end of nine months blindness was complete bilaterally but motor and sensory functions were normal. […] After 2 years the patient was admitted with motor, sensory and autonomic symptoms. Based on new symptoms, abnormalities on spinal cord MRI and the previous NMO-IgG test the diagnosis was confirmed as neuromyelitis optica. After 3 months there was partial improvement but remaining mild paraparesis.
# Prior to cladribine treatment this patient experienced five episodes of worsening over four years (estimated annual relapse rate of 1.46). The intervening remission periods were 13, 15, 6 and 6 months. From initiation of an 8-month course of cladribine treatment they experienced 34 months of stable condition without reported relapses, followed by subsequent deterioration and other treatments.
# [5] = test system: T-lymphocytes from NMO patients; test: In vitro viability response of lymphocytes derived from NMO patients to cladribine; assay type: cell-based, human; conditions: cladribine 1×10^−9M to 1×10^−4M, e.g. four days; with or without anti-CD3/anti-CD28; compared with healthy donors
# Source text: Using the methods described in Laugel B. et al., J. Neuroimmunol.; (2011); 240-241; 52-57 peripheral blood mononuclear cells (PBMCs) are first isolated from blood obtained from healthy donors and NMO patients, for example by ficoll gradient centrifugation. T-lymphocytes are further purified from these PBMCs, by for example magnetic bead separation using a pan-T cell reagents, or CD4 reagents. […] To determine the cells' viability response to cladribine, identical numbers of lymphocytes purified from both healthy donor and NMO patients are cultured with one of a number of cladribine concentrations, ranging from for example one nanomolar to one hundred micromolar (1×10^−9M to 1×10^−4M), or without any cladribine. After a period of several days, for example four days, the fraction of live cells is determined, for example by annexin V staining or trypan blue staining. This experiment is done either under stimulated conditions (that is, with the addition of anti-CD3 and anti-CD28 antibodies in all cultures, as below) or without these stimulating antibodies.
# NMO patients = conditions: cited from earlier work
# Sequence of A2A (adenosine receptor class 2a) (P29274 whole entry): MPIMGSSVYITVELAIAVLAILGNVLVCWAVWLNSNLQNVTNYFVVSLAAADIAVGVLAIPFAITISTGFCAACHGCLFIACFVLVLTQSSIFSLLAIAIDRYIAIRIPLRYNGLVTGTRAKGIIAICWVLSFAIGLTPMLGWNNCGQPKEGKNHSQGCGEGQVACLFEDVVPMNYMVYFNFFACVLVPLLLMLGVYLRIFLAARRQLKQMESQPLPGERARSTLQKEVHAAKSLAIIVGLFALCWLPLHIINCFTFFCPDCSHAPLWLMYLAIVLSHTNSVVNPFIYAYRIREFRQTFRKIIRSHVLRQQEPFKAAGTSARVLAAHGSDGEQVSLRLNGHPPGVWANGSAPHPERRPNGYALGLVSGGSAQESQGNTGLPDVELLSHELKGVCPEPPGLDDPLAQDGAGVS
compound,measurement,setting,value
"Nc1nc(Cl)nc2c1ncn2[C@H]1C[C@H](O)[C@@H](CO)O1 [cladribine, 2-chloro-2′-deoxyadenosine]",secretion of cytokines by lymphocytes from NMO patients,[1],inhibited by cladribine in a manner and to a degree similar to the inhibition seen in lymphocytes from healthy donors
same,IgM antibody levels,[2],IgM levels declined slowly over a period of more than one year
same,symptoms,[2]; maintained for several years,symptomatic improvement
same,induced cytokine production,human lymphocytes,decreased
same,affinity at A2A receptors,[3],binds with high affinity
same,disease course after cladribine treatment,"[4]; one NMO patient, single course 100 mg s.c., no further immunosuppressant treatment",two years without noted deterioration; also recorded: stabilization of the disease course for over two years
same,adverse events attributed to cladribine,"[4]; one NMO patient, total 100 mg cladribine s.c.",No adverse events attributed to cladribine were reported
same,stable condition without reported relapses,"[4]; one NMO patient, total 100 mg cladribine s.c., from initiation of an 8-month course",34 months
same,period of beneficial effects on the disease without retreatment,[4]; short period of treatment (several weeks),over 18 months
same,viability (fraction of live cells) of lymphocytes from NMO patients,[5],die over several days in a manner and to an extent similar to those purified from healthy donors
O=C1c2c(O)ccc(O)c2C(=O)c2c(NCCNCCO)ccc(NCCNCCO)c21 [mitoxantrone],disease course under mitoxantrone,"[4]; same patient, after relapse following cladribine, impaired walking, neurogenic bladder, blindness",progressive deterioration
Glatiramer acetate,effect on NMO,NMO patients,has not been found to be effective
